From the NIST ThermoML archive (doi:10.1016/j.jct.2014.12.027)
± gives the expanded uncertainty stated by the source.

Assay: activity coefficient (dimensionless); of the first substance listed, at infinite dilution; xn = mol fraction of the nth substance listed
Conditions: 101 kPa, Liquid, Chromatography, x1 = 0

Row | Structure (SMILES) | activity coefficient (318.15 K) | activity coefficient (328.15 K) | activity coefficient (338.15 K) | activity coefficient (348.15 K) | activity coefficient (358.15 K) | activity coefficient (368.15 K)
1 | Cc1ccccc1C [1,2-dimethylbenzene] + CCCC[n+]1ccc(C)cc1.N#CC(=C=[N-])C#N | 1.4 ± 0.09 | 1.45 ± 0.1 | 1.49 ± 0.1 | 1.56 ± 0.1 | 1.61 ± 0.11 | 1.66 ± 0.11
2 | Cc1cccc(C)c1 [1,3-dimethylbenzene] + CCCC[n+]1ccc(C)cc1.N#CC(=C=[N-])C#N |  | 1.71 ± 0.11 | 1.76 ± 0.12 | 1.82 ± 0.12 | 1.88 ± 0.13 | 1.94 ± 0.13
3 | Cc1ccc(C)cc1 [1,4-dimethylbenzene] + CCCC[n+]1ccc(C)cc1.N#CC(=C=[N-])C#N |  | 1.66 ± 0.11 | 1.71 ± 0.11 | 1.79 ± 0.12 | 1.84 ± 0.12 | 1.9 ± 0.13
4 | C1COCCO1 [1,4-dioxane] + CCCC[n+]1ccc(C)cc1.N#CC(=C=[N-])C#N | 0.573 ± 0.041 | 0.601 ± 0.042 | 0.624 ± 0.043 | 0.656 ± 0.045 | 0.68 ± 0.046 | 0.708 ± 0.047
5 | C#CCCCCC [1-heptyne] + CCCC[n+]1ccc(C)cc1.N#CC(=C=[N-])C#N | 4.09 ± 0.28 | 4.15 ± 0.28 | 4.22 ± 0.29 | 4.29 ± 0.29 | 4.34 ± 0.3 | 4.43 ± 0.3
6 | C#CCCCC [1-hexyne] + CCCC[n+]1ccc(C)cc1.N#CC(=C=[N-])C#N | 2.98 ± 0.2 | 3.04 ± 0.21 | 3.1 ± 0.21 | 3.17 ± 0.22 | 3.25 ± 0.22 | 3.3 ± 0.22
7 | CCC[N+](=O)[O-] [1-nitropropane] + CCCC[n+]1ccc(C)cc1.N#CC(=C=[N-])C#N |  | 0.748 ± 0.049 | 0.756 ± 0.05 | 0.769 ± 0.05 | 0.783 ± 0.051 | 0.792 ± 0.052
8 | CC(C)CO [2-methyl-1-propanol] + CCCC[n+]1ccc(C)cc1.N#CC(=C=[N-])C#N | 1.33 ± 0.086 | 1.23 ± 0.079 | 1.16 ± 0.074 | 1.11 ± 0.07 | 1.06 ± 0.067 | 1.02 ± 0.064
9 | CC(C)=O [acetone] + CCCC[n+]1ccc(C)cc1.N#CC(=C=[N-])C#N | 0.598 ± 0.042 | 0.617 ± 0.043 | 0.634 ± 0.044 | 0.656 ± 0.045 | 0.672 ± 0.046 | 0.686 ± 0.046
10 | CC#N [acetonitrile] + CCCC[n+]1ccc(C)cc1.N#CC(=C=[N-])C#N | 0.584 ± 0.041 | 0.59 ± 0.04 | 0.593 ± 0.042 | 0.599 ± 0.042 | 0.604 ± 0.042 | 0.613 ± 0.043
11 | c1ccccc1 [benzene] + CCCC[n+]1ccc(C)cc1.N#CC(=C=[N-])C#N | 0.889 ± 0.057 | 0.916 ± 0.058 | 0.937 ± 0.059 | 0.976 ± 0.061 | 1 ± 0.06 | 1.02 ± 0.06
12 | CCCCO [butan-1-ol] + CCCC[n+]1ccc(C)cc1.N#CC(=C=[N-])C#N | 1.31 ± 0.09 | 1.23 ± 0.08 | 1.17 ± 0.07 | 1.13 ± 0.07 | 1.09 ± 0.07 | 1.05 ± 0.07
13 | C1CCCCCC1 [cycloheptane] + CCCC[n+]1ccc(C)cc1.N#CC(=C=[N-])C#N | 12.8 ± 0.9 | 12.1 ± 0.8 | 11.7 ± 0.8 | 11.1 ± 0.8 | 10.6 ± 0.7 | 10.3 ± 0.7
14 | C1CCCCC1 [cyclohexane] + CCCC[n+]1ccc(C)cc1.N#CC(=C=[N-])C#N | 11.1 ± 0.8 | 10.5 ± 0.7 | 10 ± 0.7 | 9.57 ± 0.65 | 9.07 ± 0.62 | 8.65 ± 0.59
15 | CCCCCCCCCC [decane] + CCCC[n+]1ccc(C)cc1.N#CC(=C=[N-])C#N | 90.4 ± 6.2 | 83 ± 5.7 | 76.5 ± 5.2 | 72.6 ± 5 | 67.7 ± 4.6 | 62.8 ± 4.3
16 | CCO [ethanol] + CCCC[n+]1ccc(C)cc1.N#CC(=C=[N-])C#N | 0.917 ± 0.058 | 0.876 ± 0.056 | 0.838 ± 0.054 | 0.812 ± 0.053 | 0.784 ± 0.051 | 0.755 ± 0.05
17 | CCOC(C)=O [ethyl acetate] + CCCC[n+]1ccc(C)cc1.N#CC(=C=[N-])C#N | 1.3 ± 0.08 | 1.33 ± 0.09 | 1.36 ± 0.09 | 1.4 ± 0.09 | 1.42 ± 0.09 | 1.46 ± 0.1
18 | CCc1ccccc1 [ethylbenzene] + CCCC[n+]1ccc(C)cc1.N#CC(=C=[N-])C#N | 1.78 ± 0.12 | 1.83 ± 0.12 | 1.87 ± 0.13 | 1.93 ± 0.13 | 1.98 ± 0.13 | 2.01 ± 0.14

Row | Structure (SMILES) | activity coefficient (318.15 K) | activity coefficient (328.15 K) | activity coefficient (338.15 K) | activity coefficient (348.15 K) | activity coefficient (358.15 K) | activity coefficient (368.15 K)
19 | CCCCCCC [heptane] + CCCC[n+]1ccc(C)cc1.N#CC(=C=[N-])C#N | 33.7 ± 2.3 | 31.3 ± 2.1 | 29.7 ± 2 | 27.6 ± 1.9 | 25.8 ± 1.8 | 24.7 ± 1.7
20 | C=CCCCC [hex-1-ene] + CCCC[n+]1ccc(C)cc1.N#CC(=C=[N-])C#N | 11.1 ± 0.8 | 10.5 ± 0.7 | 10.2 ± 0.7 | 9.72 ± 0.66 | 9.17 ± 0.63 | 8.75 ± 0.6
21 | CCCCCC [hexane] + CCCC[n+]1ccc(C)cc1.N#CC(=C=[N-])C#N | 24.3 ± 1.7 | 23 ± 1.6 | 22.1 ± 1.5 | 20.8 ± 1.4 | 20 ± 1.4 | 19.1 ± 1.3
22 | CO [methanol] + CCCC[n+]1ccc(C)cc1.N#CC(=C=[N-])C#N | 0.663 ± 0.045 | 0.644 ± 0.044 | 0.625 ± 0.043 | 0.612 ± 0.043 | 0.593 ± 0.042 | 0.58 ± 0.041
23 | CC1CCCCC1 [methylcyclohexane] + CCCC[n+]1ccc(C)cc1.N#CC(=C=[N-])C#N | 15.8 ± 1.1 | 14.8 ± 1 | 13.9 ± 1 | 13.4 ± 0.9 | 12.7 ± 0.9 | 12.1 ± 0.8
24 | CCCCCCCCC [nonane] + CCCC[n+]1ccc(C)cc1.N#CC(=C=[N-])C#N | 65.1 ± 4.5 | 59.1 ± 4 | 55.7 ± 3.8 | 51.2 ± 3.5 | 47.6 ± 3.3 | 45.8 ± 3.1
25 | C=CCCCCCC [oct-1-ene] + CCCC[n+]1ccc(C)cc1.N#CC(=C=[N-])C#N | 21.3 ± 1.5 | 20.3 ± 1.4 | 19.7 ± 1.3 | 18.9 ± 1.3 | 18.3 ± 1.3 | 17.8 ± 1.2
26 | CCCCCCCC [octane] + CCCC[n+]1ccc(C)cc1.N#CC(=C=[N-])C#N | 46.4 ± 3.2 | 43.2 ± 3 | 41.1 ± 2.8 | 38.4 ± 2.6 | 36.3 ± 2.5 | 34.6 ± 2.4
27 | CCCC(C)=O [pentan-2-one] + CCCC[n+]1ccc(C)cc1.N#CC(=C=[N-])C#N | 0.955 ± 0.06 | 0.986 ± 0.062 | 1.01 ± 0.06 | 1.05 ± 0.07 | 1.07 ± 0.07 | 1.1 ± 0.07
28 | CCC(=O)CC [pentan-3-one] + CCCC[n+]1ccc(C)cc1.N#CC(=C=[N-])C#N | 0.942 ± 0.059 | 0.976 ± 0.061 | 1.01 ± 0.06 | 1.05 ± 0.07 | 1.07 ± 0.07 | 1.11 ± 0.07
29 | CCCO [propan-1-ol] + CCCC[n+]1ccc(C)cc1.N#CC(=C=[N-])C#N | 1.06 ± 0.07 | 1.01 ± 0.06 | 0.965 ± 0.061 | 0.936 ± 0.059 | 0.906 ± 0.057 | 0.872 ± 0.056
30 | CC(C)O [propan-2-ol] + CCCC[n+]1ccc(C)cc1.N#CC(=C=[N-])C#N | 1.15 ± 0.07 | 1.09 ± 0.07 | 1.04 ± 0.07 | 1 ± 0.06 | 0.961 ± 0.06 | 0.928 ± 0.059
31 | c1ccncc1 [pyridine] + CCCC[n+]1ccc(C)cc1.N#CC(=C=[N-])C#N |  | 0.498 ± 0.038 | 0.51 ± 0.038 | 0.528 ± 0.039 | 0.542 ± 0.04 | 0.557 ± 0.04
32 | C1CCOC1 [tetrahydrofuran] + CCCC[n+]1ccc(C)cc1.N#CC(=C=[N-])C#N | 0.779 ± 0.051 | 0.807 ± 0.052 | 0.827 ± 0.053 | 0.856 ± 0.055 | 0.872 ± 0.056 | 0.907 ± 0.058
33 | c1ccsc1 [thiophene] + CCCC[n+]1ccc(C)cc1.N#CC(=C=[N-])C#N | 0.636 ± 0.044 | 0.658 ± 0.045 | 0.678 ± 0.046 | 0.704 ± 0.047 | 0.733 ± 0.049 | 0.748 ± 0.049
34 | Cc1ccccc1 [toluene] + CCCC[n+]1ccc(C)cc1.N#CC(=C=[N-])C#N | 1.19 ± 0.08 | 1.23 ± 0.08 | 1.27 ± 0.08 | 1.32 ± 0.09 | 1.36 ± 0.09 | 1.4 ± 0.09
35 | O [water] + CCCC[n+]1ccc(C)cc1.N#CC(=C=[N-])C#N | 0.971 ± 0.061 | 0.926 ± 0.059 | 0.887 ± 0.056 | 0.859 ± 0.055 | 0.826 ± 0.053 | 0.796 ± 0.052
